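Cultured in 96-well plates, cells were exposed to test compound for 48 hours across five concentrations. TGI: concentration producing complete growth inhibition.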
Experiments:
Test in all cases: NCI anticancer screen, dose series, 48 h
[1] = system: OVCAR-8 ovarian
[2] = system: NCI-H522 lung
[3] = system: U251 CNS
[4] = system: SK-MEL-5 melanoma
[5] = system: SK-MEL-2 melanoma
[6] = system: SNB-75 CNS
[7] = system: HOP-92 NSCLC
[8] = system: NCI-H226 lung
[9] = system: T-47D breast
[10] = system: HCT-15 colon
[11] = system: SR leukemia
[12] = system: OVCAR-3 ovarian
[13] = system: LOX IMVI melanoma
[14] = system: RXF 393 renal
[15] = system: UACC-62 melanoma
[16] = system: MOLT-4 leukemia
[17] = system: M14 melanoma
[18] = system: NCI/ADR-RES ovarian
[19] = system: OVCAR-4 ovarian
[20] = system: KM12 colon
[21] = system: RPMI-8226 leukemia
[22] = system: 786-0 renal
[23] = system: MDA-N
[24] = system: PC-3 prostate
[25] = system: K-562 leukemia
[26] = system: HCT-116 colon
[27] = system: BT-549 breast
[28] = system: COLO 205 colon
[29] = system: A498 renal
[30] = system: HOP-62 NSCLC
[31] = system: IGROV1 ovarian
[32] = system: SNB-19 CNS
[33] = system: TK-10 renal
[34] = system: EKVX NSCLC
[35] = system: SW-620 colon
[36] = system: UACC-257 melanoma
[37] = system: MDA-MB-231 breast
[38] = system: CCRF-CEM leukemia
[39] = system: SK-OV-3 ovarian
[40] = system: MALME-3M melanoma
[41] = system: ACHN renal
[42] = system: HT29 colon
[43] = system: SN12C renal
[44] = system: MCF7 breast
[45] = system: MDA-MB-435
[46] = system: SF-539 CNS
[47] = system: SF-268 CNS
[48] = system: HS 578T breast
[49] = system: CAKI-1 renal
[50] = system: DU-145 prostate
[51] = system: HL-60(TB) leukemia
[52] = system: NCI-H23 lung
[53] = system: UO-31 renal
[54] = system: A549 NSCLC
[55] = system: SF-295 CNS
[56] = system: OVCAR-5 ovarian
[57] = system: SK-MEL-28 melanoma
[58] = system: HCC-2998 colon
[59] = system: NCI-H460 lung

Work on `CCc1n[nH]c(=S)n1/N=C\c1ccc(-c2ccccc2[N+](=O)[O-])o1` yielded a TGI [1] of over 100 µM, a TGI [2] of over 100 µM and a TGI [3] of over 100 µM. It also gave a TGI [4] of 33.7 µM, a TGI [5] of over 100 µM and a TGI [6] of over 100 µM. For the same compound, the TGI [7] was over 100 µM, the TGI [8] was 54.1 µM and the TGI [9] was over 100 µM. For the same compound, the TGI [10] was over 100 µM, the TGI [11] was 57.8 µM and the TGI [12] was 46.8 µM. For the same compound, the TGI [13] was over 100 µM, the TGI [14] was over 100 µM and the TGI [15] was over 100 µM. The TGI [16] was 57.8 µM, the TGI [17] was over 100 µM and the TGI [18] was 81.5 µM. For the same compound, the TGI [19] was over 100 µM, the TGI [20] was over 100 µM and the TGI [21] was 88.1 µM. It also gave a TGI [22] of over 100 µM, a TGI [23] of 39.2 µM and a TGI [24] of over 100 µM. For the same compound, the TGI [25] was over 100 µM, the TGI [26] was over 100 µM and the TGI [27] was over 100 µM. The TGI [28] was over 100 µM, the TGI [29] was over 100 µM and the TGI [30] was over 100 µM. The TGI [31] was over 100 µM, the TGI [32] was over 100 µM and the TGI [33] was over 100 µM. For the same compound, the TGI [34] was over 100 µM, the TGI [35] was over 100 µM and the TGI [36] was over 100 µM. It also gave a TGI [37] of over 100 µM, a TGI [38] of over 100 µM and a TGI [39] of over 100 µM. The TGI [40] was over 100 µM, the TGI [41] was over 100 µM and the TGI [42] was over 100 µM. The TGI [43] was over 100 µM, the TGI [44] was over 100 µM and the TGI [45] was 39.4 µM. It also gave a TGI [46] of over 100 µM, a TGI [47] of over 100 µM and a TGI [48] of over 100 µM. For the same compound, the TGI [49] was over 100 µM, the TGI [50] was over 100 µM and the TGI [51] was over 100 µM. The TGI [52] was over 100 µM, the TGI [53] was over 100 µM and the TGI [54] was over 100 µM. It also gave a TGI [55] of over 100 µM and a TGI [56] of over 100 µM.

For `CNc1ncnc2c1cnn2Cc1cn(CCCCO)nn1`, the TGI [57] was over 100 µM, the TGI [1] was over 100 µM and the TGI [2] was over 100 µM. For the same compound, the TGI [3] was over 100 µM, the TGI [4] was over 100 µM and the TGI [5] was over 100 µM. It also gave a TGI [7] of over 100 µM, a TGI [8] of over 100 µM and a TGI [9] of over 100 µM. The TGI [10] was over 100 µM, the TGI [11] was over 100 µM and the TGI [12] was over 100 µM. The TGI [13] was over 100 µM, the TGI [14] was over 100 µM and the TGI [15] was over 100 µM. It also gave a TGI [16] of over 100 µM, a TGI [17] of over 100 µM and a TGI [18] of over 100 µM. The TGI [19] was over 100 µM, the TGI [20] was over 100 µM and the TGI [21] was over 100 µM. For the same compound, the TGI [58] was over 100 µM, the TGI [22] was over 100 µM and the TGI [23] was over 100 µM. For the same compound, the TGI [24] was over 100 µM, the TGI [25] was over 100 µM and the TGI [26] was over 100 µM. For the same compound, the TGI [27] was over 100 µM, the TGI [28] was over 100 µM and the TGI [29] was over 100 µM. The TGI [30] was over 100 µM, the TGI [31] was over 100 µM and the TGI [32] was over 100 µM. The TGI [33] was over 100 µM, the TGI [34] was over 100 µM and the TGI [35] was over 100 µM. The TGI [36] was over 100 µM, the TGI [37] was over 100 µM and the TGI [38] was over 100 µM. It also gave a TGI [39] of over 100 µM, a TGI [40] of over 100 µM and a TGI [41] of over 100 µM. For the same compound, the TGI [42] was over 100 µM, the TGI [43] was over 100 µM and the TGI [44] was over 100 µM. It also gave a TGI [45] of over 100 µM, a TGI [46] of over 100 µM and a TGI [47] of over 100 µM. The TGI [48] was over 100 µM, the TGI [59] was over 100 µM and the TGI [49] was over 100 µM. For the same compound, the TGI [50] was over 100 µM, the TGI [52] was over 100 µM and the TGI [53] was over 100 µM. The TGI [54] was over 100 µM, the TGI [55] was over 100 µM and the TGI [56] was over 100 µM.

With `COC(=O)C1(C)OC(C)=NC1(C(=O)OC)C(=O)OC` (stereo unspecified) the TGI [57] was over 100 µM, the TGI [1] was over 100 µM and the TGI [3] was over 100 µM. The TGI [4] was over 100 µM, the TGI [5] was over 100 µM and the TGI [6] was over 100 µM. The TGI [7] was over 100 µM, the TGI [8] was over 100 µM and the TGI [9] was over 100 µM. For the same compound, the TGI [10] was over 100 µM, the TGI [11] was over 100 µM and the TGI [12] was over 100 µM. It also gave a TGI [13] of over 100 µM, a TGI [14] of over 100 µM and a TGI [15] of over 100 µM. The TGI [16] was over 100 µM, the TGI [17] was over 100 µM and the TGI [18] was over 100 µM. For the same compound, the TGI [19] was over 100 µM, the TGI [20] was over 100 µM and the TGI [21] was over 100 µM. The TGI [58] was over 100 µM, the TGI [22] was over 100 µM and the TGI [23] was over 100 µM. It also gave a TGI [24] of over 100 µM, a TGI [25] of over 100 µM and a TGI [26] of over 100 µM. For the same compound, the TGI [27] was over 31.6 µM, the TGI [28] was over 100 µM and the TGI [29] was over 100 µM. It also gave a TGI [30] of over 100 µM, a TGI [31] of over 100 µM and a TGI [32] of over 100 µM. For the same compound, the TGI [33] was over 100 µM, the TGI [34] was over 100 µM and the TGI [35] was over 100 µM. The TGI [36] was over 100 µM, the TGI [37] was over 100 µM and the TGI [38] was over 44 µM. It also gave a TGI [39] of over 100 µM, a TGI [40] of over 100 µM and a TGI [41] of over 100 µM. For the same compound, the TGI [42] was over 100 µM, the TGI [43] was over 100 µM and the TGI [44] was over 100 µM. For the same compound, the TGI [45] was over 100 µM, the TGI [46] was over 100 µM and the TGI [47] was over 100 µM. The TGI [48] was over 100 µM, the TGI [59] was over 100 µM and the TGI [49] was over 100 µM. It also gave a TGI [50] of over 100 µM, a TGI [51] of 14.4 µM and a TGI [52] of over 100 µM. It also gave a TGI [53] of over 100 µM, a TGI [54] of over 100 µM and a TGI [55] of over 100 µM. It also gave a TGI [56] of over 100 µM.

Source: PubChem BioAssay (NCI)
